Like-named read-outs stand apart in the source and are kept apart here.
Assays:
[1] = system: OR6 cells; experiment: Secondary assay cell viability (CellTiter-Glo); conditions: 48 hours
Method: (§1) Secondary Assays-Hit Validation. Several hits from primary HTS, as well as functionally related compounds, were purchased from Sigma (St. Louis, Mo.), Calbiochem (San Diego, Calif.), and Microsource (Gaylordsville, Conn.). […] Ten mM of stock solutions of the individual compounds to be tested was prepared in the appropriate solvent (DMSO, ethanol, or H2O, according to the manufacturer's information) and stored at −20° C. Cells were seeded into 96-well plates at a density of 2000 cells/well in 100 μL of medium. The cells were incubated for 24 hours at 37° C. to obtain the optimal level of adherence. Solutions of candidate hit compounds were added to wells to achieve final concentrations of 0.1, 1, 10, 50, and 100 μM. The final concentration of DMSO or ethanol in every well was 1% or less by volume. Mock solutions were used as a negative control. PEG-IFN and ribavirin were used as positive controls at various concentrations, alone and in combination. The plates were then incubated at 37° C. with 5% CO2 for 48 hours before they were analyzed. Luminescent signal was generated using the Renilla luciferase assay kit (Promega) according to the manufacturer's instructions. Signal was then detected using a LumiCount (Packard BioScience Company) luminometer. Cell viability was assessed using CellTiter-Glo (Promega), following the manufacturer's instructions. All experiments were performed in triplicate.
(§2) Secondary Assays-Data Analysis. Values were presented as a percentage of mock treated control, which was arbitrarily set at 100%. Data were expressed as the mean (±) SD. […] Synergy calculations were performed using CalcuSyn (Biosoft; Cambridge, England).
(§3) Secondary Assays—Hit Validation: 10 mM of stock solutions of the individual compounds to be tested were prepared in DMSO and stored at −20° C. Cells were seeded into 96-well plates at a density of 2,000 cells/well in 100 μl of medium. The cells were incubated for 24 hours at 37° C. to obtain the optimal level of adherence. Solutions of candidate hit compounds were added to wells to achieve varying final concentrations between 0.01 and 100 μM. The final concentration of DMSO or ethanol in every well was 1% or less by volume. Mock solutions were used as a negative control. Peginterferon-alfa-2b (PEG-Intron; Schering Corp.; Kenilworth, N.J.) and ribavirin (Sigma; St. Louis, Mo.) were used as positive controls at various concentrations, alone and in combination. The plates were then incubated at 37° C. with 5% CO2 for 48 hours before they were analyzed. Luminescent signal was generated using the Renilla luciferase assay kit (Promega; Madison, Wis.) according to the manufacturer's instructions. Signal was then detected using a LumiCount™ (Packard BioScience Company; Downers Grove, Ill.) luminometer. Cell viability was assessed using CellTiter-Glo (Promega; Madison, Wis.), following the manufacturer's instructions. All experiments were performed in triplicate. Values were presented as a percentage of mock treated control, which was arbitrarily set at 100%. Data were expressed as the mean±SD.
Secondary Assays—Data Analysis: Values were presented as a percentage of mock treated control, which was arbitrarily set at 100%. Data were expressed as the mean±SD.

[2] = system: OR6 cells harboring full-length genotype 1b HCV replicon ORN/C-5B/KE (HCV RNA replication); experiment: microbe, parasite or virus in culture; type: cell-based, Hepatitis C virus (strain HCV—O; conditions: 48 hours; for antiviral activity (in words): OR6 full-length replicon
Excerpt: (§4) HCV Replicon System-Secondary Assays. For validation, OR6 cells stably harboring the full-length genotype 1 replicon, ORN/C-5B/KE9 were used to examine compound activity in a more authentic viral polyprotein context. This replicon was derived from the 1B-2 strain (strain HCV—O, genotype 1b), in which the Renilla luciferase gene is introduced as a fusion protein with neomycin to facilitate the monitoring of HCV replication. This construct contains a tissue culture adaptive mutation in the NS3 region. Cells were cultured in an identical manner to the Huh7/Rep-Feo cells.
as §1, §2
as §4, with “System—Secondary Assays:” for “System-Secondary Assays.”, “For replicon” for “For”, “ORN/C-5B/KE” for “ORN/C-5B/KE9”, “(Burke J. Am. Chem. Soc. (2004) 126:14095-14104).” for “to examine compound activity in a more authentic viral polyprotein context.”, “the Neomycin resistance cassette” for “neomycin”
as §3, with “luminometer.” for “luminometer. Cell viability was assessed using CellTiter-Glo (Promega; Madison, Wis.), following the manufacturer's instructions. All experiments were performed in triplicate. Values were presented as a percentage of mock treated control, which was arbitrarily set at 100%. Data were expressed as the mean±SD.”

[3] = system: Huh7/Rep-Feo HCV replicon (HCV RNA replication); type: cell-based, Hepatitis C virus (strain HCV—N, genotype 1b)
Excerpt: Development of the Huh7/Rep-Feo replicon assay. […] This replicon was derived from a chimpanzee infectious clone (strain HCV—N, genotype 1b). In this replicon, the structural genes have been replaced by a reporter gene. The chimeric reporter gene Feo encodes the firefly luciferase protein fused in-frame with neomycin phosphotransferase. This Huh7/Rep-Feo cell supports high levels of autonomous HCV RNA replication because it was derived from the HCV—N strain, which carries an adaptive mutation in NSSA that confers highlevel replication in tissue culture. Furthermore, the level of luciferase correlates well with levels of HCV RNA production, so that luciferase can be used as a reliable surrogate marker for HCV replication. The use of luciferase as a reporter permits quantitative and highthroughput detection of HCV replication levels. The specific use of firefly luciferase makes this replicon especially well-suited for automation, because the luciferase reagent can be added directly to the cell culture system prior to signal detection without the need for cell lysis, washing, or aspiration.
HCV Replicon System-Primary Screening. […] Briefly, this replicon harbors a subgenomic HCV genotype 1b sequence, fused to firefly luciferase, stably replicating under neomycin selection. Cells were propagated in Dulbecco's Modified Eagle's medium (DMEM) containing 10% fetal bovine serum (FBS) supplemented with 1% penicillin-streptomycin, and 500 μg of Geneticin (Invitrogen Corp., Carlsbad, Calif.)/mL. Cells were cultured in a 37° C., 5% CO2-humidified incubator for all experiments. To decrease day-today variability in the assay, a large homogenous population of subconfluent cells was passaged so that a similar lot of cells could be used throughout the HTS assay.
Primary Screening-HTS. Information about the library of known bioactive compounds that was screened and the general automated HTS protocol is available at http://www.broad.harvard.edu/chembio/index.html (see FIG. 10 for list of primary HTS with known bioactives library). Based on the results of optimization experiments in the 384-well plate format, the general HTS protocol was adapted as follows. Unless otherwise indicated, cells were incubated at all times in a humidified environment with 5% CO2 at 37° C. The assay was initiated by plating 30 μL of medium containing 2000 cells/well into white 384-well opaque-bottom plates (Nunc, Rochester, N.Y.) using an automated plate filler (Bio-Tek uFiller; Winsooki, Vt.) and allowing the cells to adhere for 24 hours. One hundred nL of compound stock solutions in DMSO was transferred from stock plates into the 384-well assay plates using an automated pin-based compound transfer robot (CyBio CyBi-Well vario; Woburn, Mass.). The final compound concentration in each well was estimated to be approximately 10-50 μM, with most compounds at 33 μM. The wells contained 0.33% DMSO by volume. The cells were then incubated for another 48 hours. The luminescent signal from each plate was detected using an automated plate reader (Perkin-Elmer Envision 1; Wellesley, Mass.). This screen was performed in duplicate. For negative controls, entire DMSO-treated control plates were employed, in addition to DMSO-only control wells that were incorporated into each compound assay plate. The cells were assayed for luciferase activity using the Bright-Glo Luciferase assay system (Promega), following the manufacturer's instructions. As a counter-screen, cell viability was assessed using the CellTiterGlo Luminescent cell viability assay (Promega) following the manufacturer's instructions.
Computational Data Analysis-Primary Screening. For each replicate, a mock-treatment distribution based on the total population of mock (DMSO) controls in that replicate was built (FIG. 11).

[4] = system: Huh7/Rep-Feo HCV replicon; experiment: Optimization of Huh7/Rep-Feo cells for 96-/384-well plates with PEG-IFN as positive control; type: cell-based, Hepatitis C virus (strain HCV—N, genotype 1b); conditions: 96-well plates; measurements at 24, 48, 72 hours
Method: Optimization of Huh-7/Rep-Feo Cells for the 384-Well Plate Format. The Huh7/Rep-Feo cells were first optimized for the 96-well plate format (FIG. 9). […] Cells were seeded at densities of 5000 and 10,000 cells/well in 100_L of medium in 96-well plates. The cells were allowed to attach overnight (approximately 24 hours) before addition of PEG-IFN at various concentrations (day 0). The plates were then incubated further, and measurements were taken at 24, 48, and 72 hours. At each time point, the plates were equilibrated at room temperature, an equal volume of Bright-Glo reagent (Promega, Madison, Wis.) was added, and the plates were read in a LumiCount (Packard BioScience Company, Downers Grove, Ill.) luminometer. […] Results were expressed as the mean of three replicate wells. […]
Optimization of Huh-7/Rep-Feo cells for the 384-well plate format: Cells were propagated in Dulbecco's Modified Eagle's medium (DMEM) containing 10% fetal bovine serum (FBS) supplemented with 1% penicillin-streptomycin, and 500 μg of Geneticin (Invitrogen Corp., Carlsbad, Calif.)/ml. […] At each time point, the plates were equilibrated at room temperature, an equal volume of Bright-Glo reagent (Promega, Madison, Wis.) was added, and the plates were read in a LumiCount™ (Packard BioScience Company, Downers Grove, Ill.) luminometer. […] Results were expressed as the mean of three replicate wells. […]

Compound	cytotoxicity (in words) [1]	antiviral activity (in words) [2]	further results
CC[C@H](C)C(=O)O[C@H]1CCC=C2C=C[C@H](C)[C@H](CC[C@@H]3C[C@@H](O)CC(=O)O3)[C@H]21 [Mevastatin, mevastatin]	not cytotoxic	weakly inhibitory	
Clc1cccc(Nc2nnc(-c3ccccc3)c3ccccc23)c1 [MY-5445]	significant cytotoxicity	decreased the luciferase signal in a dose-related manner	primary screen hit result (in words) ([3]; known bioactives library, approximately 10-50 μM, most at 33 μM): Antiviral
C[S+]([O-])c1ccc(-c2nc(-c3ccncc3)c(-c3ccc(F)cc3)[nH]2)cc1 (centres unmarked) [SB 203580]	cytotoxicity at higher concentrations	antiviral activity at a concentration of 10 μM	primary screen hit result (in words) [3]: Antiviral
O=C1[C@@]2(CO)C=C(I)C(CC2c2ccccc2)[C@@]12CO2 (some centres unmarked) [SM_A14B5]			concentrations at which cytotoxic effects were exhibited [1]: above 30 μM; IC50 ([2]; Hepatitis C virus, OR6, 48 h, read-out: IC50 (HCV RNA replication, luciferase), OR6 full-length genotype 1b replicon): ~3.5 µM
Peginterferon-alfa-2b [PEG-IFN]			antiviral activity over time (in words) [4]: progressively increased over time

From patent US20120094939A1, “ANTI-VIRAL COMPOUNDS, COMPOSITIONS AND METHODS” (priority 2007, published 2012)
